Source: paper PMC10879876, “Activatable prodrug for controlled release of an antimicrobial peptide via the proteases overexpressed in Candida albicans and Porphyromonas gingivalis” (Theranostics, 2024)
Where no end group is shown, it is not given here.

Key:
C. albicans [1] = test: Kirby-Bauer disk diffusion, C. albicans; type: cell-based, Candida albicans; conditions: disks treated with 1 mM, five-day incubation at 30 °C
HEK293T [2] = test: Confocal microscopy of membrane integrity, HEK293T; type: cell-based, human; conditions: 100 µM prodrug, 3 hours at 37 °C, CellBrite Fix Membrane Stain 640
Protocol: (§1) standard curve: ∆PLCy5.5 vs. [fully-digested FRET probe]. Data were then fitted to the following Michaelis-Menten equation: ! = !!"#[…]. […]
(§2) amino acid sequences were provided. PEP-FOLD then employs a physics-based energy function […]
(§3) structures for the given peptide sequence. […]
(§4) dynamics sampling approach. […]
(§5) energy and the agreement with experimental or theoretical constraints. The algorithm selects the […]
(§6) allowed to grow overnight. […]
(§7) peptides for 3 hours at 37 °C. Next, cells were washed three times with sterile PBS. Mammalian […]
(§8) PBS (Thermo Scientific) at room temperature for 20 min. Cells were imaged by a confocal […]
(§9) Transmission Electron Microscopy. […]
(§10) by air drying overnight. Cellular morphology was conducted using the same microscope. Here, […]
(§11) nanomedicine lab (UCSD NanoEngineering). Cells were cultured in complete Dulbecco’s […]
(§12) Streptomycin), at 37 °C and 5% CO2. Passages were conducted with 0.25% Trypsin EDTA before […]
(§13) signal that is proportional to H2O2 concentration. Cells were seeded into 96-well plates (Corning, […]

HEK293T [3] = test: XTT viability assay, HEK293T; type: cell-based, human
P. gingivalis [4] = test: Kirby-Bauer disk diffusion, P. gingivalis; type: cell-based, Porphyromonas gingivalis; conditions: disks treated with 1 mM, five-day incubation at 37 °C
SAP9 = molecular target: T1, SAP9 (Candida albicans, UniProt Q59SU1); test: Enzyme digestion by recombinant SAP9 (MALDI-TOF / ESI-MS); type: biochemical; conditions: 37 °C; for Cleavage / degradation by SAP9: 300 nM recombinant SAP9, 3 h, 9.5 mM MES, 2.7 mM KCl, 140 mM NaCl pH 5.5, 455 µM peptide, MALDI-TOF (ESI-MS for P-113)
T1 construct: purchased MyBioSource (San Diego, CA)
T1 sequence (Q59SU1 18-544): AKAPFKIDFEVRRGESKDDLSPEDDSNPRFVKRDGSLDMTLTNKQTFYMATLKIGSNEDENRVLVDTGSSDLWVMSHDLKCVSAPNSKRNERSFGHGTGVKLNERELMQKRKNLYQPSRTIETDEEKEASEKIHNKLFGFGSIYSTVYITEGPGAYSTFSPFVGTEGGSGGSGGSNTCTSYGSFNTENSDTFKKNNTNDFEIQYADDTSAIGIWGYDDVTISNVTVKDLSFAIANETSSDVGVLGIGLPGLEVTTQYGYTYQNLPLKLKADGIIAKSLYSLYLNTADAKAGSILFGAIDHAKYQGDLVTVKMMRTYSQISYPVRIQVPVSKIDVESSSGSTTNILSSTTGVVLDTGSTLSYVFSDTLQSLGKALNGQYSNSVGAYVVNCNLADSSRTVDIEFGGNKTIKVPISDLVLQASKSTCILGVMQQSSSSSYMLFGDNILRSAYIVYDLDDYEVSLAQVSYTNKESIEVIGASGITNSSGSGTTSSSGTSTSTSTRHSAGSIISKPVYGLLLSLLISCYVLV
Protocol: (§14) Probe activation, kinetics, and cytotoxicity.
(§15) Enzyme digestion. SAP9 and RgpB cleavage were both performed with 455 µM of peptide. […] Then, 10 µL of the enzyme at the appropriate concentration was added. An optimized final concentration of 300 nM for SAP9 and 200 nM for RgpB were used. The solution was incubated at 37 °C for 3 hours for RgpB and SAP9 for optimal cleavage.

C. albicans [5] = system: C. albicans; set-up: method as in PMID 27458227; conditions: previous work; cited from earlier work
C. albicans [6] = test: ROS H2O2 luminescence assay, C. albicans; type: cell-based, Candida albicans; conditions: 10 μM, 4 hours, ROS-Glo H2O2 assay, versus cells + PBS
Protocol: (§16) The assay uses an H2O2 substrate that reacts directly with H2O2 to generate a luciferin precursor [55]. It was predicted that exposure of the microorganisms to the prodrug would lead to alterations in their normal physiological processes thus triggering a stress response and inducing the generation of ROS. […] This is consistent with previous studies wherein ROS production is credited as the secondary event of the fungicidal mechanism of P-113 [56]. […]
as §7
(§17) PBS (Thermo Scientific) at room temperature for 20 min. […]
(§18) Cells were cultured in complete Dulbecco’s
as §12, §13
(§19) then incubated for 4 hours at 37 °C before 100µl of ROS-Glo™ Detection Solution was added to each well. Finally, the plate was incubated for 20 minutes at room temperature and the relative luminescence was recorded using a plate reader (Synergy H1, BioTek). […]
(§20) LoB = meanblank + 1.645 (SDblank) […]
(§21) LoD = LoB + 1.645 (SDlow concentration sample).
(§22) Statistical Analysis. Statistical analysis was conducted using GraphPad Prism 10. […]
(§23) A P-value of < 0.05 was […]
(§24) considered significant. […]

RgpB = molecular target: T2, RgpB (Porphyromonas gingivalis, UniProt P95493); test: Enzyme digestion by recombinant RgpB (MALDI-TOF / ESI-MS); type: biochemical; conditions: 37 °C
T2 construct: gift from Professor Anthony O'Donoghue (UC San Diego)
T2 sequence (P95493 230-736): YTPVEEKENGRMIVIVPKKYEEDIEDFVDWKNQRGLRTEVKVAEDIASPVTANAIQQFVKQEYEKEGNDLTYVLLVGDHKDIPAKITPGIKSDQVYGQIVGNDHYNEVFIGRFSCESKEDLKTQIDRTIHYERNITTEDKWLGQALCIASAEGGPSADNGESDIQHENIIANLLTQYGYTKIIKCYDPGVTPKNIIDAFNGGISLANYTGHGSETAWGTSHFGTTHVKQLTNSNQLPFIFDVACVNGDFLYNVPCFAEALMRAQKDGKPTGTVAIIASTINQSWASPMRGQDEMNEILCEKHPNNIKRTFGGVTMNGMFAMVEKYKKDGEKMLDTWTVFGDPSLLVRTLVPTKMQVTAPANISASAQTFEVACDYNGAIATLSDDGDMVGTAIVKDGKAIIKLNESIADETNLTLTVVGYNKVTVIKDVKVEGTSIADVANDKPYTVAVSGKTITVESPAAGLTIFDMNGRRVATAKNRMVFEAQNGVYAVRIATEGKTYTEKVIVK
Protocol: as §14, §15

P. gingivalis [7] = test: ROS H2O2 luminescence assay, P. gingivalis; type: cell-based, Porphyromonas gingivalis; conditions: 10 μM, 4 hours, ROS-Glo H2O2 assay, versus cells + PBS
Protocol: as §16, §7, §17, §18, §12, §13, §19, §20, §21, §22, §23, §24

C. albicans [8] = test: TEM of cell morphology, C. albicans; type: cell-based, Candida albicans; conditions: 3 hours at 37 °C; S1 at 40 µM
Excerpt: (§25) Finally, the target microorganisms were also imaged using transmission electron microscopy (TEM) to visualize the cell morphology. Figure 3C presents C. albicans cells. On the left, the untreated cells show a rigid and intact membrane in contrast to the […] (+ S1) showing decreased cell density and clear destruction of the membranes. This obvious change in morphology is seen at other magnifications (Supplementary Figure S19). […]
as §1, §2, §3, §4, §5, §6, §7, §8, §9, §10, §11, §12

C. albicans [9] = test: XTT viability assay, C. albicans; type: cell-based, Candida albicans; conditions: intact peptide, 10 µM, 3 h at 37 °C, absorbance 490 nm, sextuplet measurements
Protocol: Fungal culture. In situ culturing C. albicans (ATCC 90028) from lyophilized stock (KWIK-STIK, VWR) was conducted on Sabouraud dextrose agar plates (Sigma-Aldrich) 2 to 5 days in advance of the antifungal assay. The plates were then incubated at 30°C and pearl-like colonies were observed, indicative of C. albicans. Single colonies were then extracted with sterilized inoculation loops and inoculated in 3 mL yeast extract peptone dextrose (YEPD) medium (2% Bacto^TMpeptone, 2% Dextrose, 1% Yeast extract in H2O) using Biological Safety Level 2 (BSL-2) practices and procedures. Note, the broth was autoclaved before use and stored at room temperature. […] The culture was finally diluted 1:100 and the OD600 was measured wherein OD600 = 0.5 a.u. correlates to approximately 1 × 10^6 cells/ mL in 100 µL RPMI-1640 medium with L-glutamine and 3-(N-morpholino)propane sulfonic acid (MOPS) without sodium bicarbonate, pH 7.0. […]
Viability assay. The percent toxicity was calculated using an XTT (2,3-bis-(2-methoxy-4-nitro-5-sulfophenyl)-2H-tetrazolium-5-carboxanilide) colorimetric assay (Biotium) wherein viable cells form an orange formazan product upon reduction. […] The absorbance of the formazan dye was measured at a wavelength of 490 nm using a microplate reader. Here, the absorbance is directly proportional to the number of viable cells present in each well. […]

P. gingivalis [10] = test: XTT viability assay, P. gingivalis; type: cell-based, Porphyromonas gingivalis; conditions: 10 µM
P. gingivalis [11] = test: TEM of cell morphology, P. gingivalis; type: cell-based, Porphyromonas gingivalis; conditions: 3 hours at 37 °C; G1 at 40 µM
Excerpt: as §25, §1, §2, §3, §4, §5, §6, §7, §8, §9, §10, §11, §12

F. nucleatum = test: XTT viability assay, F. nucleatum; type: cell-based, Fusobacterium nucleatum; conditions: intact peptide

With `OC(Cn1cncn1)(Cn1cncn1)c1ccc(F)cc1F` [FLZ, fluconazole, reference compound] the “Growth inhibition in disk diffusion test” value (C. albicans [1]) was “Obvious growth inhibition”.

In the case of AKRHHGYKRKFHGGAGPRIDGGDDDDDD-NH2 [G1], the “Membrane integrity by confocal microscopy” value (HEK293T [2]) is reported as “membrane remained intact” and the “Toxicity to HEK293T compared to P-113” value (HEK293T [3]; intact prodrug, 10 µM, XTT) is reported as “decreased toxicity by nearly half”.

With “Ac-AKRHHGYKRKFH-NH2 [P-113, reference compound]” the “Growth inhibition in disk diffusion test” value (P. gingivalis [4]) was “Colony growth is inhibited”, the “Cleavage / degradation by SAP9” value (SAP9) was “no degradation” and the “Growth inhibition in disk diffusion test” value (C. albicans [1]) was “Obvious growth inhibition”. For the same compound, the MIC (C. albicans [5]) was 10 µM, the “H2O2 ROS generation, relative luminescence” value (C. albicans [6]) was “six-fold increase” and the “Cleavage / degradation by RgpB” value (RgpB; 200 nM recombinant RgpB, 3 h, 0.2 M Tris HCl pH 7.6, 5 mM CaCl2, 100 mM NaCl, 40 mM TCEP, 455 µM peptide, MALDI-TOF (ESI-MS for P-113)) was “no degradation”. The “MIC for HEK293T relative to MIC for the oral microorganisms” value (HEK293T [3]) was roughly 100 times and the “H2O2 ROS generation, relative luminescence” value (P. gingivalis [7]) was “six-fold increase”.

In the case of “Ac-AKRHHGYKRKFHGGVKKKDVVDGGDDDDDD-NH2 [S1]”, the “Cell morphology by TEM” value (C. albicans [8]) is reported as “decreased cell density and cell rupturing”, the “Growth inhibition in disk diffusion test” value (P. gingivalis [4]) is reported as “No growth inhibition” and the “Cleavage / degradation by SAP9” value (SAP9) is reported as “obvious mass peaks corresponding to the cleaved fragments”. The “Cleavage by SAP9, S1 and G1 co-incubated” value (SAP9; joint solution of S1 and G1, SAP9 300 nM, 3 hours, MALDI-TOF) was “S1 converting to S1 fragment”, the Percent toxicity (C. albicans [9]) was 70% and the “Inhibited growth relative to the positive control treatment (FLZ)” value (C. albicans [1]; disk diffusion, diameter relative to fluconazole) was “approximately 70%”. For the same compound, the “Growth inhibition in disk diffusion test” value (C. albicans [1]) was “Obvious growth inhibition”, the “Change of percent toxicity upon cleavage” value (P. gingivalis [10]; S1 pre-cleaved in vitro by 300 nM recombinant SAP9 versus intact (30%)) was “nearly doubled” and the Percent toxicity (P. gingivalis [10]; intact peptide, 3 h at 37 °C, absorbance 490 nm, sextuplet measurements) was 30%. The “H2O2 ROS generation, relative luminescence” value (C. albicans [6]) was “six-fold increase”, the “Cleavage by RgpB, S1 and G1 co-incubated” value (RgpB; joint solution of S1 and G1, RgpB 300nM, 3 hours, MALDI-TOF) was “S1 remaining intact” and the “Cell morphology by TEM” value (P. gingivalis [11]) was “intact cell structures”. For the same compound, the Percent toxicity (F. nucleatum; 10 µM, 3 h at 37 °C) was 15%, the “Percent toxicity, highest over the titration” value (F. nucleatum; all tested concentrations) was no more than 50% and the “H2O2 ROS generation, relative luminescence” value (P. gingivalis [7]) was “little luminescence”.
